Results reported in patent publication US8637511B2, “Aminopyrimidines useful as kinase inhibitors” (Vertex Pharmaceuticals Incorporated, priority 2005, dated 2014).
pIC50, pKi: −log10 of the molar value. “And” between values parts separate entries of the source, which are not always exact repeats. Equal entries are not always repeated. Where two headings read alike, the source gives them in different places.

Columns and labels:
[1] = system: Colo205 cells; experiment: Analysis of cell proliferation and viability; assay type: cell-based; details: Homo sapiens, read-out: IC50 value
Method: Colo205 cells were seeded in 96 well plates and serially diluted compound was added to the wells in duplicate. Control groups included untreated cells, the compound diluent (0.1% DMSO alone) and culture medium without cells.
To measure proliferation, 3 h prior to the end of the experiment 0.5 μCi of 3H thymidine was added to each well. Cells were then harvested and the incorporated radioactivity counted on a Wallac microplate beta-counter. Cell viability was assessed using Promega CellTiter 96AQ to measure MTS conversion. Dose response curves were calculated using either Prism 3.0 (GraphPad) or SoftMax Pro 4.3.1 LS (Molecular Devices) software.

[2] = biological target: Aurora-1 (Aurora B) (Homo sapiens, UniProt Q96GD4); experiment: Aurora-1 (Aurora B) inhibition assay (radiometric); assay type: biochemical; details: read-out: Aurora B kinase Ki value
Aurora-1 (Aurora B), sequence (Q96GD4 whole entry): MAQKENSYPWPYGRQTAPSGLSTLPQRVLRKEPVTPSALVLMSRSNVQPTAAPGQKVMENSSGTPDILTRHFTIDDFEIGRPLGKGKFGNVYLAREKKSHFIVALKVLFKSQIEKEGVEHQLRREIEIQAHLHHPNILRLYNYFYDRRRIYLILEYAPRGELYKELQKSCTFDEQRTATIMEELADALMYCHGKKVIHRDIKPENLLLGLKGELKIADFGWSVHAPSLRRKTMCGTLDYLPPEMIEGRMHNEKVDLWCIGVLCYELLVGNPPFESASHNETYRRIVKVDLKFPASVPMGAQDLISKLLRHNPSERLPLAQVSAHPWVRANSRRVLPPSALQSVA
Method: An assay buffer solution was prepared which consisted of 25 mM HEPES (pH 7.5), 10 mM MgCl2, 0.1% BSA and 10% glycerol. […] To 22 μL of the Aurora-B solution, in a 96-well plate, was added 2 μl of a compound stock solution in DMSO and the mixture allowed to equilibrate for 10 minutes at 25° C. The enzyme reaction was initiated by the addition of 16 μl stock [γ-^33P]-ATP solution (˜20 nCi/μL) prepared in assay buffer, to a final assay concentration of 800 μM. The reaction was stopped after 3 hours by the addition of 16 μL 500 mM phosphoric acid and the levels of ^33P incorporation into the peptide substrate were determined by the following method.
A phosphocellulose 96-well plate (Millipore, Cat no. MAPHNOB50) was pre-treated with 100 μL of a 100 mM phosphoric acid prior to the addition of the enzyme reaction mixture (40 μL). The solution was left to soak on to the phosphocellulose membrane for 30 minutes and the plate subsequently washed four times with 200 μL of a 100 mM phosphoric acid. […] Levels of non-enzyme catalyzed background radioactivity were determined by adding 16 μL of the 500 mM phosphoric acid to control wells, containing all assay components (which acts to denature the enzyme), prior to the addition of the [γ-^33P]-ATP solution. Levels of enzyme catalyzed. ^33P incorporation were calculated by subtracting mean background counts from those measured at each inhibitor concentration. […] Ki values were calculated from initial rate data by non-linear regression using the Prism software package (Prism 3.0, Graphpad Software, San Diego, Calif.).

[3] = biological target: T1, Aurora-2 (Aurora A) (Homo sapiens, UniProt O14965); experiment: Aurora-2 (Aurora A) inhibition assay, coupled enzyme; assay type: biochemical
T1 sequence (O14965 1-403): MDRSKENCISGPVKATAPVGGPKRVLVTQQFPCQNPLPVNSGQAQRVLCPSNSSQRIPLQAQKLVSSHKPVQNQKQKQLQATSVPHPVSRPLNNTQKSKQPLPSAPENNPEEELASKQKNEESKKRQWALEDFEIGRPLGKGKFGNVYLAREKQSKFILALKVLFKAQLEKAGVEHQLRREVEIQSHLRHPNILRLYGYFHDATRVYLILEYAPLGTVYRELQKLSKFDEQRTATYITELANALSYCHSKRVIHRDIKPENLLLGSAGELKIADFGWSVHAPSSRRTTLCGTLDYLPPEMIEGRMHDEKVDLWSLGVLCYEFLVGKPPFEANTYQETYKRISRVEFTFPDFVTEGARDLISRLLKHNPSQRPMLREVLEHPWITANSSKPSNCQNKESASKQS
Method: Assays were carried out in a mixture of 100 mM Hepes (pH7.5), 10 mM MgCl2, 1 mM DTT, 25 mM NaCl, 2.5 mM phosphoenolpyruvate, 300 μM NADH, 30 μg/ml pyruvate kinase and 10 μg/ml lactate dehydrogenase. […] Assays were carried out at 30° C. and in the presence of 40 nM Aurora-2.
The plate was preincubated for 10 minutes at 30° C. and the reaction initiated by addition of 10 μl of Aurora-2. Initial reaction rates were determined with a Molecular Devices SpectraMax Plus plate reader over a 10 minute time course. IC50 and Ki data were calculated from non-linear regression analysis using the Prism software package (GraphPad Prism version 3.0cx for Macintosh, GraphPad Software, San Diego Calif., USA).

[4] = COLO 205, Colo205 cells, incubated for 96 hours
[5] = read-out: Aurora A kinase Ki value
[6] = COLO 205, Colo205 cells, incubated for 72 hours

| SMILES | pIC50 [1, 4] | pKi [2] | pKi [3, 5] | further results |
| --- | --- | --- | --- | --- |
| Cc1cc(Nc2cc(N3CCC3)nc(Sc3ccc(C(=O)NC4CC4)cc3)n2)n[nH]1 [Compound 18] | 6.00 to 7.30 | 7.30 to 8.00 and > 7.60 | – | pKi [3]: 6.70 to 8.30 |
| Cc1cc(Nc2cc(N3CCC3)nc(Sc3ccc(NC(=O)Cc4ccc(Cl)cc4)cc3)n2)n[nH]1 [Compound 36] | 6.00 to 7.30 | 7.30 to 8.00 and > 7.60 | ≥ 9.00 | – |
| Cc1cc(Nc2cc(N3CCC3)nc(Sc3ccc(NC(=O)c4sc(C)nc4C)cc3)n2)n[nH]1 [Compound 41] | 6.00 to 7.30 | 5.70 to 7.30 | 6.70 to 8.30 | – |
| Cc1cc(Nc2cc(N3CCC3)nc(Sc3ccc(NC(=O)c4cccc(Cl)c4Cl)cc3)n2)n[nH]1 [Compound 42] | 6.00 to 7.30 | – | – | – |
| Cc1cc(Nc2cc(N3CCC3)nc(Sc3ccc(NC(=O)c4sccc4Cl)cc3)n2)n[nH]1 [Compound 43] | 6.00 to 7.30 | 7.30 to 8.00 | 8.30 to 9.00 | – |
| Cc1cc(Nc2cc(N3CCC3)nc(Sc3ccc(NC(=O)c4cc(F)ccc4F)cc3)n2)n[nH]1 [Compound 45] | 6.00 to 7.30 | 7.30 to 8.00 | – | – |
| Cc1cc(Nc2cc(N3CCC3)nc(Sc3ccc(-n4ccccc4=O)cc3)n2)[nH]n1 [Compound 47] | < 6.00 | 5.70 to 7.30 | 6.70 to 8.30 | – |
| Cc1cc(Nc2cc(C(=O)N3CCC3)nc(Sc3ccc(NC(=O)c4ccccc4Cl)cc3)n2)n[nH]1 [Compound 62] | < 6.00 | 5.70 to 7.30 | – | – |
| Cc1cc(Nc2cc(N3CCC3)nc(Sc3ccc(NC(=O)c4cccnc4C)cc3)n2)[nH]n1 [Compound 63] | < 6.00 | 7.30 to 8.00 | 6.70 to 8.30 | – |
| CCC(=O)Nc1ccc(Sc2nc(Nc3cc(C)n[nH]3)cc(N3CC(N4CCC4)C3)n2)cc1 [Compound 70] | ≥ 7.30 | 5.70 to 7.30 | 8.30 to 9.00 | – |
| CCN(CC)C(=O)Nc1ccc(Sc2nc(Nc3cc(C)[nH]n3)cc(N3CCC3)n2)cc1 [Compound 72] | < 6.00 | 5.70 to 7.30 | 6.70 to 8.30 | – |
| CCC(=O)Nc1ccc(Sc2nc(Nc3cc(C)n[nH]3)cc(N3CC(O)(CC(C)(C)C)C3)n2)cc1 [Compound 84] | ≥ 7.30 | – | – | – |
| CCC(=O)Nc1ccc(Sc2nc(Nc3cc(C)n[nH]3)cc(N3CC(O)(c4ccccc4)C3)n2)cc1 [Compound 86] | 6.00 to 7.30 | ≥ 8.00 | ≥ 9.00 | – |
| CCC(=O)Nc1ccc(Sc2nc(Nc3cc(C)n[nH]3)cc(N3CC(O)(c4ccccc4C)C3)n2)cc1 [Compound 93] | 6.00 to 7.30 | 5.70 to 7.30 | ≥ 9.00 | – |
| CCC(=O)Nc1ccc(Sc2nc(Nc3cc(C)n[nH]3)cc(N3CC(O)(CC)C3)n2)cc1 [Compound 98] | 6.00 to 7.30 | – | – | – |
| COc1cccc(C(=O)Nc2ccc(Sc3nc(Nc4cc(C)n[nH]4)cc(N4CCC4)n3)cc2)c1 [Compound 116] | – | – | – | pIC50 [1, 6]: < 6.70 |
| Cc1cc(Nc2cc(N3CCC3)nc(Sc3ccc(NC(=O)c4ccccc4C(F)F)cc3)n2)[nH]n1 [Compound 120] | – | – | – | pIC50 [1, 6]: < 6.70 |
| Cc1cc(Nc2cc(N3CCC3)nc(Sc3ccc(NC(=O)c4cccc(CN5CCC5)c4)cc3)n2)[nH]n1 [Compound 140] | 6.00 to 7.30 | 5.70 to 7.30 | – | – |
| Cc1cc(Nc2cc(N3CC(F)(C4CC4)C3)nc(Sc3ccc(NC(=O)C4(C(F)(F)F)CC4)cc3)n2)[nH]n1 [Compound 143] | – | – | – | pIC50 ([1]; COLO 205, 72 h): ≥ 7.52 |
| CCC(=O)Nc1ccc(Sc2nc(Nc3cc(C)[nH]n3)cc(N3CC(F)(C4CC4)C3)n2)cc1 [Compound 147] | – | – | 8.30 to 9.00 | pIC50 ([1]; COLO 205, 72 h): 6.70 to 7.52 |
| Cc1cc(Nc2cc(N3CC(F)(C4CC4)C3)nc(Sc3ccc(NC(=O)CCC(F)(F)F)cc3)n2)[nH]n1 [Compound 157] | – | – | – | pIC50 ([1]; COLO 205, 72 h): ≥ 7.52; pIC50 ([1]; COLO 205, 96 h): ≥ 7.30 |
| CSc1ccccc1C(=O)Nc1ccc(Sc2nc(Nc3cc(C)[nH]n3)cc(N3CCC3)n2)cc1 [Compound 165] | 6.00 to 7.30 | – | – | – |
| Cc1cc(Nc2cc(N3CC(F)(C4CC4)C3)nc(Sc3ccc(N)cc3)n2)[nH]n1 [Compound 174] | – | – | – | pIC50 [1, 6]: < 6.70 |
| Cc1cc(Nc2cc(N3CC(N4CCCC4)C3)nc(Sc3ccc4nc(C(F)(F)F)n(C)c4c3)n2)[nH]n1 [Compound 176] | – | 7.30 to 8.00 and > 7.60 | – | pIC50 [1, 6]: ≥ 7.52 |
| Cc1cc(Nc2cc(N3CCC3)nc(Sc3ccc(NC(=O)c4ccccc4Cl)nc3)n2)[nH]n1 [Compound 207] | – | – | 8.30 to 9.00 | pIC50 [1, 6]: < 6.70 |
